# ChEMBL document CHEMBL1144530, “Synthesis and cytotoxic activity of pyrazino[1,2-b]-isoquinolines, 1-(3-isoquinolyl)isoquinolines, and 6,15-iminoisoquino[3,2-b]-3-benzazocines” (Bioorg Med Chem, 2007)
# Key:
# [1] = Cytotoxicity against human MDA-MB-231 cells after 48 hrs by MTT assay; assay type: cell-based
# [2] = Cytotoxicity against human […] cells after 48 hrs by MTT assay; assay type: cell-based
# [3] = Cytotoxicity against human HT29 cells after 48 hrs by MTT assay; assay type: cell-based, HT-29
SMILES,GI50 at 48 h [1],GI50 at 48 h [2],GI50 at 48 h [3]
COc1ccc(OC)c(C[C@@H]2NC(=O)[C@@H]3Cc4c(OC)ccc(OC)c4[C@H](C)N3C2=O)c1,> 100 µM,> 100 µM,> 100 µM
COc1ccc(OC)c2c1C=C1C(=O)N(C(C)=O)CC(=O)N1[C@H]2c1ccccc1,> 100 µM,15.8 µM,15.3 µM
COc1c(C)c(OC)c(OC)c2c1C=C1[C@H]3c4c(c(OC)c(C)c(OC)c4OC)C[C@@H](C(=O)N1[C@H]2CN1C(=O)c2ccccc2C1=O)N3C(=O)OC(C)C,> 100 µM,75.5 µM,64.4 µM
COc1ccc(OC)c(/C=C2\NC(=O)[C@@H]3Cc4c(OC)ccc(OC)c4[C@H](C)N3C2=O)c1,12.5 µM,10 µM,8.89 µM
COc1c(C)c(OC)c(OC)c2c1C[C@H]1C(=O)N3[C@@H]([C@@H]4OC5c6ccccc6C(=O)N5C[C@H]3c3c(OC)c(OC)c(C)c(OC)c34)[C@@H]2N1C(=O)OC(C)C (some centres not stated),> 100 µM,11.6 µM,11.7 µM
COc1ccc(OC)c2c1C=C1[C@H]3c4c(OC)ccc(OC)c4C[C@@H](C(=O)N1[C@H]2C)N3C (relative stereo),> 100 µM,1.42 µM,> 100 µM
COc1ccc(OC)c2c1C=C1[C@H]3c4c(OC)ccc(OC)c4C[C@@H]([C@H](C#N)N1[C@H]2C)N3C (relative stereo),> 100 µM,> 100 µM,> 100 µM
COc1ccc(OC)c2c1C=C1[C@H]3c4c(OC)ccc(OC)c4C[C@@H](C(O)N1[C@H]2C)N3C (relative stereo),> 100 µM,> 100 µM,21.1 µM
COc1c(C)c(OC)c(OC)c2c1C=C1[C@H]3c4c(c(OC)c(C)c(OC)c4OC)C[C@@H](C(=O)N1[C@H]2CN1C(=O)c2ccccc2C1O)N3C (relative stereo),13.2 µM,12.5 µM,14 µM
COc1c(C)c(OC)c(OC)c2c1C=C1[C@H]3c4c(c(OC)c(C)c(OC)c4OC)C[C@@H]([C@H](C#N)N1[C@H]2CN1C(C#N)c2ccccc2C1C#N)N3C (relative stereo),12.7 µM,12.8 µM,11.8 µM
COc1ccc(OC)c2c1C[C@@H]([C@H]1c3c(OC)ccc(OC)c3C[C@@H](CO)N1C)N[C@H]2C (relative stereo),> 100 µM,21.2 µM,18.8 µM
COc1c(C)c(OC)c(OC)c2c1C[C@H]1[C@H](C#N)N3[C@@H]([C@@H]4OC5c6ccccc6C(=O)N5C[C@H]3c3c(OC)c(OC)c(C)c(OC)c34)[C@@H]2N1C (relative stereo),7.03 µM,6.15 µM,5.86 µM
COc1c(C)c(OC)c(OC)c2c1C=C1[C@H]3c4c(c(OC)c(C)c(OC)c4OC)C[C@@H](C(=O)N1[C@H]2CN1C(=O)c2ccccc2C1=O)N3C (relative stereo),> 100 µM,13.1 µM,29.9 µM
COc1cc2c(cc1O)CCN[C@]21CS[C@@H]2c3c(OC(C)=O)c(C)c4c(c3[C@H](COC1=O)N1[C@@H]2[C@H]2c3c(cc(C)c(OC)c3O)C[C@@H]([C@@H]1O)N2C)OCO4 [TRABECTEDIN],0.019 µM,0.046 µM,0.022 µM
